Tests used:
[1] = xn = mol fraction of the nth substance listed; conditions: 101 kPa, Liquid
[2] = 101 kPa, Liquid

CCCCCCCCO [octan-1-ol] + CCCCCCCCCCO
[1], x1 = 1
Conditions | mass density [kg/m3] | viscosity [mPa·s]
283.15 K | 832.1 | 13.49
288.15 K | 828.6 | 10.87
293.15 K | 825.2 | 8.944
298.15 K | 821.9 | 7.498
303.15 K | 818.4 | 6.273
308.15 K | 815 | 5.342
313.15 K | 811.4 | 4.54

CCCCCCCCCCO [decan-1-ol] + CCCCCCCCCCCO
[1], x1 = 1
Conditions | mass density [kg/m3] | viscosity [mPa·s]
293.15 K | 829.9 | 14.39
298.15 K | 826.5 | 11.74
303.15 K | 823 | 9.561
308.15 K | 819.6 | 8
313.15 K | 816.3 | 6.831

CCCCCCCCCCO [decan-1-ol]
[2]
Conditions | mass density [kg/m3] | viscosity [mPa·s]
283.15 K | 836.6 | 22.06
288.15 K | 833.3 | 17.99
293.15 K | 829.9 | 14.39
298.15 K | 826.5 | 11.74
303.15 K | 823 | 9.561
308.15 K | 819.6 | 8
313.15 K | 816.3 | 6.831

CCCCCCCCCO [nonan-1-ol]
[2]
Conditions | mass density [kg/m3] | viscosity [mPa·s]
283.15 K | 835 | 17.44
288.15 K | 831.5 | 14.27
293.15 K | 828.1 | 11.63
298.15 K | 824.7 | 9.519
303.15 K | 821.3 | 7.806
308.15 K | 817.8 | 6.604
313.15 K | 814.3 | 5.668

CCCCCCCCCCCO [1-undecanol] + CCCCCCCCCCO
[1]
Conditions | mass density, 293.15 K [kg/m3] | mass density, 298.15 K [kg/m3] | mass density, 303.15 K [kg/m3] | mass density, 308.15 K [kg/m3] | mass density, 313.15 K [kg/m3] | viscosity, 293.15 K [mPa·s] | viscosity, 298.15 K [mPa·s] | viscosity, 303.15 K [mPa·s] | viscosity, 308.15 K [mPa·s] | viscosity, 313.15 K [mPa·s]
x2 = 0 | 832.2 | 828.8 | 825.4 | 821.7 | 818.6 | 17.28 | 13.72 | 11.52 | 9.35 | 7.841
x2 = 0.1007 | 832 | 828.7 | 825.2 | 821.6 | 818.2 | 16.88 | 13.52 | 11.27 | 9.368 | 7.805
x2 = 0.1997 | 831.5 | 828.1 | 824.8 | 821.4 | 818 | 16.68 | 13.31 | 11.08 | 9.233 | 7.778
x2 = 0.2999 | 831.4 | 828 | 824.6 | 821.2 | 817.8 | 16.14 | 13.23 | 10.89 | 9.057 | 7.655
x2 = 0.3998 | 831.2 | 827.8 | 824.4 | 821 | 817.5 | 16.08 | 12.88 | 10.7 | 8.909 | 7.579
x2 = 0.4997 | 831 | 827.6 | 824.2 | 820.8 | 817.3 | 15.59 | 12.79 | 10.51 | 8.76 | 7.452
x2 = 0.5978 | 830.8 | 827.4 | 824 | 820.6 | 817.1 | 15.59 | 12.58 | 10.34 | 8.652 | 7.323
x2 = 0.6999 | 830.5 | 827.1 | 823.7 | 820.3 | 816.9 | 15.28 | 12.35 | 10.14 | 8.504 | 7.249
x2 = 0.7989 | 830.4 | 827 | 823.5 | 820.2 | 816.7 | 14.5 | 12.12 | 9.958 | 8.357 | 7.068
x2 = 0.8995 | 830.1 | 826.8 | 823.3 | 819.9 | 816.5 | 14.76 | 11.98 | 9.777 | 8.185 | 6.94

CCCCCCCCO [octan-1-ol]
[2]
Conditions | mass density [kg/m3] | viscosity [mPa·s]
283.15 K | 832.1 | 13.49
288.15 K | 828.6 | 10.87
293.15 K | 825.2 | 8.944
298.15 K | 821.9 | 7.498
303.15 K | 818.4 | 6.273
308.15 K | 815 | 5.342
313.15 K | 811.4 | 4.54

CCCCCCCCCCO [decan-1-ol] + CCCCCCCCCO
[1], x2 = 0
Conditions | mass density [kg/m3] | viscosity [mPa·s]
283.15 K | 836.6 | 22.06
288.15 K | 833.3 | 17.99
293.15 K | 829.9 | 14.39
298.15 K | 826.5 | 11.74
303.15 K | 823 | 9.561
308.15 K | 819.6 | 8
313.15 K | 816.3 | 6.831

CCCCCCCCO [octan-1-ol] + CCCCCCCCCCCO
[1], x1 = 1
Conditions | mass density [kg/m3] | viscosity [mPa·s]
293.15 K | 825.2 | 8.944
298.15 K | 821.9 | 7.498
303.15 K | 818.4 | 6.273
308.15 K | 815 | 5.342
313.15 K | 811.4 | 4.54

CCCCCCCCCO [nonan-1-ol] + CCCCCCCCCCCO
[1], x1 = 1
Conditions | mass density [kg/m3] | viscosity [mPa·s]
293.15 K | 828.1 | 11.63
298.15 K | 824.7 | 9.519
303.15 K | 821.3 | 7.806
308.15 K | 817.8 | 6.604
313.15 K | 814.3 | 5.668

CCCCCCCCCCCO [1-undecanol] + CCCCCCCCCO
[1]
Conditions | mass density, 293.15 K [kg/m3] | mass density, 298.15 K [kg/m3] | mass density, 303.15 K [kg/m3] | mass density, 308.15 K [kg/m3] | mass density, 313.15 K [kg/m3] | viscosity, 293.15 K [mPa·s] | viscosity, 298.15 K [mPa·s] | viscosity, 303.15 K [mPa·s] | viscosity, 308.15 K [mPa·s] | viscosity, 313.15 K [mPa·s]
x2 = 0 | 832.2 | 828.8 | 825.4 | 821.7 | 818.6 | 17.28 | 13.72 | 11.52 | 9.35 | 7.841
x2 = 0.1002 | 831.7 | 828.3 | 824.9 | 821.5 | 818.1 | 16.58 | 13.43 | 11.15 | 9.247 | 7.609
x2 = 0.1996 | 831.3 | 827.9 | 824.5 | 821.1 | 817.7 | 16.08 | 12.83 | 10.73 | 8.926 | 7.373
x2 = 0.3004 | 830.9 | 827.5 | 824.1 | 820.7 | 817.3 | 15.38 | 12.55 | 10.37 | 8.681 | 7.298
x2 = 0.4001 | 830.6 | 827.2 | 823.8 | 820.3 | 816.9 | 14.91 | 11.98 | 9.973 | 8.333 | 7.04
x2 = 0.5 | 830.2 | 826.8 | 823.4 | 819.9 | 816.5 | 14.29 | 11.52 | 9.577 | 8.014 | 6.872
x2 = 0.6002 | 829.8 | 826.4 | 823 | 819.5 | 816.1 | 13.61 | 11.32 | 9.2 | 7.71 | 6.627
x2 = 0.6994 | 830.1 | 826.6 | 823.2 | 819.7 | 816.3 | 12.84 | 10.55 | 8.746 | 7.333 | 6.267
x2 = 0.7995 | 829.1 | 825.6 | 822.2 | 818.8 | 815.3 | 12.68 | 10.35 | 8.272 | 7.133 | 6.138
x2 = 0.8988 | – | – | – | 818.1 | – | – | – | – | 6.897 | –
x2 = 0.8997 | 828.4 | 825 | 821.5 | – | 814.6 | 12.13 | 9.929 | 8.195 | – | 5.93

CCCCCCCCCCCO [1-undecanol]
[2]
Conditions | mass density [kg/m3] | viscosity [mPa·s]
293.15 K | 832.2 | 17.28
298.15 K | 828.8 | 13.72
303.15 K | 825.4 | 11.52
308.15 K | 821.7 | 9.35
313.15 K | 818.6 | 7.841

CCCCCCCCCCCO [1-undecanol] + CCCCCCCCO
[1]
Conditions | mass density, 293.15 K [kg/m3] | mass density, 298.15 K [kg/m3] | mass density, 303.15 K [kg/m3] | mass density, 308.15 K [kg/m3] | mass density, 313.15 K [kg/m3] | viscosity, 293.15 K [mPa·s] | viscosity, 298.15 K [mPa·s] | viscosity, 303.15 K [mPa·s] | viscosity, 308.15 K [mPa·s] | viscosity, 313.15 K [mPa·s]
x2 = 0 | 832.2 | 828.8 | 825.4 | 821.7 | 818.6 | 17.28 | 13.72 | 11.52 | 9.35 | 7.841
x2 = 0.1003 | 831.5 | 828.1 | 824.8 | 821.3 | 817.8 | 16.4 | 13.35 | 10.95 | 9.118 | 7.665
x2 = 0.2001 | 831 | 827.6 | 824.2 | 820.7 | 817.3 | 15.21 | 12.54 | 10.36 | 8.645 | 7.35
x2 = 0.2998 | 830.5 | 827 | 823.6 | 820.2 | 816.8 | 14.4 | 11.97 | 9.808 | 8.207 | 6.995
x2 = 0.4001 | – | – | 822.9 | – | – | – | – | 9.281 | – | –
x2 = 0.4002 | 829.7 | 826.3 | – | 819.5 | 816 | 13.8 | 11.23 | – | 7.773 | 6.652
x2 = 0.4999 | 829 | 825.6 | 822.2 | 818.8 | 815.3 | 12.78 | 10.64 | 8.745 | 7.392 | 6.336
x2 = 0.5998 | 828.3 | 824.9 | 821.5 | 818.1 | 814.6 | 12.19 | 9.948 | 8.252 | 6.989 | 5.991
x2 = 0.6998 | 827.7 | 824.3 | 820.8 | 817.4 | 813.9 | 10.95 | 9.276 | 7.691 | 6.49 | 5.615
x2 = 0.8 | 826.9 | 823.5 | 820.1 | 816.6 | 813.1 | 10.24 | 8.693 | 7.271 | 6.137 | 5.295
x2 = 0.8999 | 826.2 | 822.8 | 819.3 | 815.8 | 812.3 | 9.416 | 8.002 | 6.723 | 5.728 | 4.957

CCCCCCCCO [octan-1-ol] + CCCCCCCCCO
[1], x1 = 1
Conditions | mass density [kg/m3] | viscosity [mPa·s]
283.15 K | 832.1 | 13.49
288.15 K | 828.6 | 10.87
293.15 K | 825.2 | 8.944
298.15 K | 821.9 | 7.498
303.15 K | 818.4 | 6.273
308.15 K | 815 | 5.342
313.15 K | 811.4 | 4.54

From the NIST ThermoML archive (doi:10.1021/je050200w)
